Laboratory results reported in patent US6706663B2, “Herbicidal 3-heterocyclic substituted benzisothiazole and benzisoxazole compounds” (Wyeth, priority 2000, dated 2004).

What was measured:
[1] = tested on: SETVI (Setaria viridis); assay: Preemergence herbicidal evaluation; format: in vivo, (L.) Beau; conditions: Rate 0.0620 kg/ha; rated 4-5 weeks after treatment
Source text: (§1) Results of herbicide evaluation are expressed on a rating scale (0-9). The scale is based upon a visual observation of plant stand, vigor, malformation, size, chlorosis and overall plant appearance as compared with a control.
(§2) The preemergence herbicidal activity of the test compounds of the present invention is exemplified by the following tests in which the seeds of a variety of monocotyledonous and dicotyledonous plants are separately mixed with potting soil and planted on top of approximately one inch of soil in separate pint cups. […] The treated cups are then placed on greenhouse benches, watered and cared for in accordance with conventional greenhouse procedures. From four to five weeks after treatment, the tests are terminated and each cup is examined and rated according to the rating system provided in Example 87. The plant species used and the compounds evaluated are the same as those shown in Example 87.

[2] = tested on: ECHCG (Echinochloa crus-galli); assay: Preemergence herbicidal evaluation; format: in vivo, (L.) Beau; conditions: Rate 0.0620 kg/ha; rated 4-5 weeks after treatment
Source text: as §1, §2

[3] = tested on: ORYSAT (Rice, Tebonnet); assay: Postemergence herbicidal evaluation; format: in vivo, Oryza sativa, (L.) Tebonnet; conditions: postemergence
Protocol: (§3) In the tests, seedling plants are grown in jiffy flats for about two weeks. […] After spraying, the plants are placed on greenhouse benches and are cared for in accordance with conventional greenhouse procedures. From four to five weeks after treatment, the seedling plants are examined and rated according to the rating system set forth below. Where more than one test is involved for a given compound, the data are averaged.
as §1

[4] = tested on: CHEAL (Chenopodium album); assay: Preemergence herbicidal evaluation; format: in vivo, L.; conditions: Rate 0.0620 kg/ha; rated 4-5 weeks after treatment
Source text: as §1, §2

[5] = tested on: AMBEL (Ambrosia artemisifolia); assay: Preemergence herbicidal evaluation; format: in vivo, L.; conditions: Rate 0.0620 kg/ha; rated 4-5 weeks after treatment
Source text: as §1, §2

[6] = tested on: CASOB (Cassia obtusifolia); assay: Preemergence herbicidal evaluation; format: in vivo, L.; conditions: Rate 0.0620 kg/ha; rated 4-5 weeks after treatment
Source text: as §1, §2

[7] = tested on: MOOVA (Monochoria vaginalis); assay: Flooded paddy, preemergence weed control; format: in vivo, Presl.; conditions: rated 3-4 weeks after treatment, 0-9 rating scale
Protocol: as §1
(§4) Preemergence herbicidal activity under flooded paddy conditions is determined as follows: plant seeds or propagating organs are planted in the top 0.5 cm of silt loam soil in 32 oz. plastic containers with a diameter of 10.5 cm and no drainage holes. Water is added to these containers and maintained at 1.5 to 3 cm above the soil surface for the duration of the experiment. […] The treated containers are placed on greenhouse benches and cared for in accordance with conventional greenhouse procedures.

[8] = tested on: SETVI (Setaria viridis); assay: Postemergence herbicidal evaluation; format: in vivo, (L.) Beau; conditions: postemergence
Protocol: In the tests, seedling plants are grown in jiffy flats for about two weeks. The test compounds are dispersed in 50/50 acetone/water mixtures containing 0.5% TWEEN® 20, a polyoxyethylene sorbitan monolaurate surfactant of Atlas Chemical Industries, in sufficient quantities to provide the equivalent of about 0.0040 kg to 1.000 kg per hectare of active compound when applied to the plants through a spray nozzle operating at 40 psi for a predetermined time. After spraying, the plants are placed on greenhouse benches and are cared for in accordance with conventional greenhouse procedures. From four to five weeks after treatment, the seedling plants are examined and rated according to the rating system set forth below. Where more than one test is involved for a given compound, the data are averaged.
as §1

[9] = tested on: GALAP (Galium aparine); assay: Preemergence herbicidal evaluation; format: in vivo; conditions: Rate 0.0620 kg/ha; rated 4-5 weeks after treatment
Source text: as §1, §2

[10] = tested on: ZEAMX (Corn, Field); assay: Postemergence herbicidal evaluation; format: in vivo, Zea mays, L.; conditions: postemergence
Protocol: as §3, §1

[11] = tested on: IPOHE (Ipomoea hederacea); assay: Postemergence herbicidal evaluation; format: in vivo, (L.) Jacq.; conditions: postemergence
Protocol: as §3, §1

[12] = tested on: ABUTH (Abutilon theophrasti); assay: Postemergence herbicidal evaluation; format: in vivo, Medic.; conditions: postemergence
Protocol: as §3, §1

[13] = tested on: TRZAWR (Wheat, Winter, cv Riband); assay: Postemergence herbicidal evaluation; format: in vivo, Triticum aestivum; conditions: postemergence
Protocol: as §3, §1

[14] = tested on: SAGPY (Sagittaria pygmaea); assay: Flooded paddy, preemergence weed control; format: in vivo, L.; conditions: rated 3-4 weeks after treatment, 0-9 rating scale
Protocol: as §1, §4

[15] = tested on: GLXMAW (Soybean, Williams); assay: Postemergence herbicidal evaluation; format: in vivo, Glycine max, (L.) Merr. cv Williams; conditions: postemergence
Protocol: as §3, §1

[16] = tested on: ZEAMX (Corn, Field); assay: Preemergence herbicidal evaluation; format: in vivo, Zea mays, L.; conditions: Rate 0.0620 kg/ha; rated 4-5 weeks after treatment
Source text: as §1, §2

[17] = tested on: ABUTH (Abutilon theophrasti); assay: Preemergence herbicidal evaluation; format: in vivo, Medic.; conditions: Rate 0.0620 kg/ha; rated 4-5 weeks after treatment
Source text: as §1, §2

[18] = tested on: IPOHE (Ipomoea hederacea); assay: Preemergence herbicidal evaluation; format: in vivo, (L.) Jacq.; conditions: Rate 0.0620 kg/ha; rated 4-5 weeks after treatment
Source text: as §1, §2

[19] = tested on: ECHCG (Echinochloa crus-galli); assay: Postemergence herbicidal evaluation; format: in vivo, (L.) Beau; conditions: postemergence
Protocol: as §3, §1

[20] = tested on: TRZAWR (Wheat, Winter, cv Riband); assay: Preemergence herbicidal evaluation; format: in vivo, Triticum aestivum; conditions: Rate 0.0620 kg/ha; rated 4-5 weeks after treatment
Source text: as §1, §2

[21] = tested on: GALAP (Galium aparine); assay: Postemergence herbicidal evaluation; format: in vivo; conditions: postemergence
Protocol: as §3, §1

[22] = tested on: ORYSAT (Rice, Tebonnet); assay: Preemergence herbicidal evaluation; format: in vivo, Oryza sativa, (L.) Tebonnet; conditions: Rate 0.0620 kg/ha; rated 4-5 weeks after treatment
Source text: as §1, §2

[23] = tested on: GLXMAW (Soybean, Williams); assay: Preemergence herbicidal evaluation; format: in vivo, Glycine max, (L.) Merr. cv Williams; conditions: Rate 0.0620 kg/ha; rated 4-5 weeks after treatment
Source text: as §1, §2

[24] = tested on: CHEAL (Chenopodium album); assay: Postemergence herbicidal evaluation; format: in vivo, L.; conditions: postemergence
Protocol: as §3, §1

[25] = tested on: AMBEL (Ambrosia artemisifolia); assay: Postemergence herbicidal evaluation; format: in vivo, L.; conditions: postemergence
Protocol: as §3, §1

[26] = tested on: CASOB (Cassia obtusifolia); assay: Postemergence herbicidal evaluation; format: in vivo, L.; conditions: postemergence
Protocol: as §3, §1

[27] = tested on: ECHORC (Echinochloa oryzoides); assay: Flooded paddy, preemergence weed control; format: in vivo, Echinochloa oryzoides (Ard.) Fritsch.; conditions: rated 3-4 weeks after treatment, 0-9 rating scale
Protocol: as §1, §4

[28] = tested on: CYPIR (Cyperus iria); assay: Flooded paddy, preemergence weed control; format: in vivo; conditions: rated 3-4 weeks after treatment, 0-9 rating scale
Protocol: as §1, §4

[29] = tested on: ORYSAT (Rice, Tebonnet); assay: Flooded paddy, post-transplant rice tolerance; format: in vivo, Oryza sativa, (L.) Tebonnet; conditions: in vivo
Protocol: as §1
The tolerance of transplanted rice to post-transplanted herbicide application is determined as follows: two ten-day-old rice seedlings (cv. Tebonnet) are transplanted into silt loam soil in 32 oz. plastic containers with a diameter of 10.5 cm and no drainage holes. After transplanting, the containers are flooded and the water level is maintained at 1.5 to 3 cm above the soil surface. […] The treated containers are placed on greenhouse benches, watered such that the water level is maintained as stated above, and cared for in accordance with conventional greenhouse procedures.

In the case of `C[C@@H]1OC(c2nsc3cc(F)c(-n4c(=O)cc(C(F)(F)F)n(C)c4=O)cc23)O[C@@H]1C` (stereo partly drawn) [Compound 66, 3-[3-[(4R,5S-)-4,5-dimethyl-1,3-dioxolan-2-yl]-6-fluoro-1,2-benzisothiazol-5-yl]-1-methyl-6-(trifluoromethyl)uracil], the “Preemergence herbicidal rating SETVI” value [1] is reported as 9.0, the “Preemergence herbicidal rating ECHCG” value [2] is reported as 9.0 and the ORYSAT herbicidal rating ([3]; rate 0.0320 kg/ha) is reported as 4.5. For the same molecule, the ORYSAT herbicidal rating ([3]; rate 0.0620 kg/ha) was 4.5, the “Preemergence herbicidal rating CHEAL” value [4] was 9.0 and the “Preemergence herbicidal rating AMBEL” value [5] was 9.0. The “Preemergence herbicidal rating CASOB” value [6] was 6.0, the “herbicidal rating, MOOVA” value ([7]; rate 0.0080 kg/ha) was 0.0 and the “herbicidal rating, MOOVA” value ([7]; rate 0.0320 kg/ha) was 9.0. For the same molecule, the “herbicidal rating, MOOVA” value ([7]; rate 0.1250 kg/ha) was 9.0, the SETVI herbicidal rating ([8]; rate 0.0320 kg/ha) was 8.0 and the SETVI herbicidal rating ([8]; rate 0.0620 kg/ha) was 9.0. For the same molecule, the “Preemergence herbicidal rating GALAP” value [9] was 7.0, the ZEAMX herbicidal rating ([10]; rate 0.0320 kg/ha) was 5.5 and the ZEAMX herbicidal rating ([10]; rate 0.0620 kg/ha) was 5.5. For the same molecule, the IPOHE herbicidal rating ([11]; rate 0.0320 kg/ha) was 9.0, the IPOHE herbicidal rating ([11]; rate 0.0620 kg/ha) was 9.0 and the ABUTH herbicidal rating ([12]; rate 0.0320 kg/ha) was 9.0. The ABUTH herbicidal rating ([12]; rate 0.0620 kg/ha) was 9.0, the TRZAWR herbicidal rating ([13]; rate 0.0320 kg/ha) was 4.0 and the TRZAWR herbicidal rating ([13]; rate 0.0620 kg/ha) was 4.0. For the same molecule, the “herbicidal rating, SAGPY” value ([14]; rate 0.0080 kg/ha) was 2.5, the “herbicidal rating, SAGPY” value ([14]; rate 0.0320 kg/ha) was 9.0 and the “herbicidal rating, SAGPY” value ([14]; rate 0.1250 kg/ha) was 9.0. The GLXMAW herbicidal rating ([15]; rate 0.0320 kg/ha) was 9.0, the GLXMAW herbicidal rating ([15]; rate 0.0620 kg/ha) was 9.0 and the “Preemergence herbicidal rating ZEAMX” value [16] was 8.0. For the same molecule, the “Preemergence herbicidal rating ABUTH” value [17] was 9.0, the “Preemergence herbicidal rating IPOHE” value [18] was 7.5 and the ECHCG herbicidal rating ([19]; rate 0.0320 kg/ha) was 2.0. For the same molecule, the ECHCG herbicidal rating ([19]; rate 0.0620 kg/ha) was 5.0, the “Preemergence herbicidal rating TRZAWR” value [20] was 8.0 and the GALAP herbicidal rating ([21]; rate 0.0320 kg/ha) was 9.0. For the same molecule, the GALAP herbicidal rating ([21]; rate 0.0620 kg/ha) was 9.0, the “Preemergence herbicidal rating ORYSAT” value [22] was 8.5 and the “Preemergence herbicidal rating GLXMAW” value [23] was 9.0. The CHEAL herbicidal rating ([24]; rate 0.0320 kg/ha) was 9.0, the CHEAL herbicidal rating ([24]; rate 0.0620 kg/ha) was 9.0 and the AMBEL herbicidal rating ([25]; rate 0.0320 kg/ha) was 9.0. The AMBEL herbicidal rating ([25]; rate 0.0620 kg/ha) was 9.0, the CASOB herbicidal rating ([26]; rate 0.0320 kg/ha) was 8.0 and the CASOB herbicidal rating ([26]; rate 0.0620 kg/ha) was 9.0. The “herbicidal rating, ECHORC” value ([27]; rate 0.0080 kg/ha) was 4.5, the “herbicidal rating, ECHORC” value ([27]; rate 0.0320 kg/ha) was 9.0 and the “herbicidal rating, ECHORC” value ([27]; rate 0.1250 kg/ha) was 9.0. The “herbicidal rating, CYPIR” value ([28]; rate 0.0080 kg/ha) was 2.5, the “herbicidal rating, CYPIR” value ([28]; rate 0.0320 kg/ha) was 6.0 and the “herbicidal rating, CYPIR” value ([28]; rate 0.1250 kg/ha) was 9.0.
`Cn1c(C(F)(F)F)cc(=O)n(-c2ccc3snc(-c4cccnc4)c3c2)c1=O` [Example 11] was tested, and the “herbicidal rating, ORYSAT (rice tolerance)” value [29] was 0.0.
